The text below walks through data of US20250304535A1, “KAT6 Inhibitors” (BeiGene Switzerland GmbH, priority 2024, published 2025).

Assay [1] has as its target Recombinant human KAT6A protein (497-780) (Homo sapiens (Human), UniProt Q92794). Nature of the assay: KAT6A biochemical TR-FRET assay. To be noted: histone H4 peptide 2000 nM, AcCoA 300 nM, enzyme 5 nM. On the procedure: Enzymatic reactions of KAT6A and KAT6B were performed using Fluorescence Resonance Energy Transfer (TR-FRET) assay, which measures acetylation of a synthetic, biotinylated histone-H4 peptide by the KAT6A and KAT6B enzymes. Recombinant human KAT6A protein (497-780) were expressed in BL21 cell using an E. coli expression system. Recombinant human KAT6B protein (657-1069) was expressed in sf9 cell using a baculovirus expression system. […] Acetyl coenzyme A was purchased from Sigma-Aldrich (#A-2056).
Testing for the inhibition activities of various compounds disclosed herein was carried out at room temperature in assay buffer containing 100 mM Tris/HCl Ph7.8, 15 mM NaCl, 0.01% chicken egg white albumin, 1 mM DTT and 0.01% Tween-20. Compounds in DMSO were dispensed into wells of a black, 384-well plate (Corning 4514) using ECHO555 (Beckman). The final concentration ranges of the test compounds were 0.0625-1,000 nM, 0.625-10,000 nM, or 0.313-5,000 nM. Five μL of KAT6A or KAT6B enzyme solution were added to wells, and the plate was incubated for 1 hour at room temperature (rt). After incubation for 1 hour at rt, 5 μL H4 and AcCoA substrate solutions were added to the wells to initiate reaction, and the plate was incubated. After 2 hours reaction, 5 μL detection reagent were added to the wells, and the plate was incubated for 2 hours. After two hours incubation, detection reagent containing 5 nM Anti-histone H4 antibody (ABCAM #ab177790), 100 μM formic acid (sigma #06473-100ML), 0.1 test/μL streptavidin-XL665 (PerkinElmer #610SAXLG), 0.05 test/μL PAb anti-rabbit IgG-Eu (PerkinElmer μ61PARKLA) was added to the wells. TR-FRET was measured on a microplate reader (PHERAstar FSX, BMG labtech). […] In Table 6, I≤5 nM, 5 nM<II≤50 nM.

The subject of assay [2] is histone H3K23 acetylation in U-2 OS cells. Put plainly: Histone H3 lysine 23 acetylation assay in U-2 OS cells (high content analysis). It counts as cell-based. To be noted: Homo sapiens, U2OS, 24 hrs exposure, H3K23ac level. On the procedure: Assay B: Histone H3 lysine 23 Acetylation Assay
Compounds were tested for their capacity to suppress the histone H3K23 acetylation in the following high content analysis assay.
The cell line U-2 OS (ATCC HTB-96) was seeded at a density of 2000 cells per well in black 384 well cell culture/imaging microplates in 45 μl McCoy's 5A medium with […]. After overnight incubation in 37° C., 5% CO2 incubator, cells were then treated with a 9-point dilution series of compounds and a blank control group with medium containing 0.1% DMSO.
Following a 24 hrs exposure to the compounds, the cells were fixed with 4% immunohistochemical fixative for 20 mins at room temperature, washed with DPBS with 2% fetal bovine serum, and permed with Perm Buffer III for 30 min on ice, washed with DPBS with 2% fetal bovine serum. Then the cells were blocked with Odyssey blocking buffer containing 0.1% Tween 20. 20 ul Anti-Histone H3 (acetyl K23) antibody (Abcam, ab177275) in odyssey blocking buffer containing 0.1% Tween20 was added and incubated overnight at 4° C. After incubation, the cells were washed for 3 times and a secondary antibody Anti-rabbit IgG (H+L), F(ab′)2 Fragment (Alexa Fluor® 647 Conjugate) (CST, 4414S) were added into cells for one hour. The cells were washed and 1 ug/ml DAPI (Thermo, 62248) were added for 10 min. Then cells were washed and read on the PerkinElmer Operetta CLS high content analysis system. The nuclei were identified by DAPI and H3K23ac level was calculated from the Alexa Fluor 647 intensity in the nuclei. Inhibition rate of H3K23ac was calculated as the mean intensity of cells per well relative to blank controls on the same plate.

Assay [3] addresses Recombinant human KAT6B protein (657-1069) (Homo sapiens (Human), UniProt Q8WYB5). Nature of the assay: KAT6B biochemical TR-FRET assay. To be noted: histone H4 peptide 1000 nM, AcCoA 100 nM, enzyme 5 nM. On the procedure: Enzymatic reactions of KAT6A and KAT6B were performed using Fluorescence Resonance Energy Transfer (TR-FRET) assay, which measures acetylation of a synthetic, biotinylated histone-H4 peptide by the KAT6A and KAT6B enzymes. Recombinant human KAT6A protein (497-780) were expressed in BL21 cell using an E. coli expression system. Recombinant human KAT6B protein (657-1069) was expressed in sf9 cell using a baculovirus expression system. Histone H4 peptide (SEQ ID NO: 1—[…]-GGK-Biotin), which was used as substrate, was synthesized by GL Biochem, Shanghai, China. Acetyl coenzyme A was purchased from Sigma-Aldrich (#A-2056).
Testing for the inhibition activities of various compounds disclosed herein was carried out at room temperature in assay buffer containing 100 mM Tris/HCl Ph7.8, 15 mM NaCl, 0.01% chicken egg white albumin, 1 mM DTT and 0.01% Tween-20. Compounds in DMSO were dispensed into wells of a black, 384-well plate (Corning 4514) using ECHO555 (Beckman). The final concentration ranges of the test compounds were 0.0625-1,000 nM, 0.625-10,000 nM, or 0.313-5,000 nM. Five μL of KAT6A or KAT6B enzyme solution were added to wells, and the plate was incubated for 1 hour at room temperature (rt). After incubation for 1 hour at rt, 5 μL H4 and AcCoA substrate solutions were added to the wells to initiate reaction, and the plate was incubated. After 2 hours reaction, 5 μL detection reagent were added to the wells, and the plate was incubated for 2 hours. After two hours incubation, detection reagent containing 5 nM Anti-histone H4 antibody (ABCAM #ab177790), 100 μM formic acid (sigma #06473-100ML), 0.1 test/μL streptavidin-XL665 (PerkinElmer #610SAXLG), 0.05 test/μL PAb anti-rabbit IgG-Eu (PerkinElmer μ61PARKLA) was added to the wells. TR-FRET was measured on a microplate reader (PHERAstar FSX, BMG labtech). The IC50s were calculated based on inhibition of enzyme activity in the presence of increasing concentrations of test compounds, and the results are shown in Table 6. In Table 6, I≤5 nM, 5 nM<II≤50 nM.
(In general: In TR-FRET formats the signal depends on donor and acceptor labels being close together.)

Chain of Recombinant human KAT6A protein (497-780) (Q92794 497-780): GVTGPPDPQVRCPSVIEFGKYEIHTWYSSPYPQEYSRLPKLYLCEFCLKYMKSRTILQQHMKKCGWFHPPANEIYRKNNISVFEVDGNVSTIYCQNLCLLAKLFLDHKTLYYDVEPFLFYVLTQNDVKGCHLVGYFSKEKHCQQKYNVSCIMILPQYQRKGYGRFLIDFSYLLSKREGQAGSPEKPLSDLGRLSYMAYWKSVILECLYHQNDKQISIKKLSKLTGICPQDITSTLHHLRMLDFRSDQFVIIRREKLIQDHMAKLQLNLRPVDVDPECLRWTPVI
Chain of Recombinant human KAT6B protein (657-1069) (Q8WYB5 657-1069): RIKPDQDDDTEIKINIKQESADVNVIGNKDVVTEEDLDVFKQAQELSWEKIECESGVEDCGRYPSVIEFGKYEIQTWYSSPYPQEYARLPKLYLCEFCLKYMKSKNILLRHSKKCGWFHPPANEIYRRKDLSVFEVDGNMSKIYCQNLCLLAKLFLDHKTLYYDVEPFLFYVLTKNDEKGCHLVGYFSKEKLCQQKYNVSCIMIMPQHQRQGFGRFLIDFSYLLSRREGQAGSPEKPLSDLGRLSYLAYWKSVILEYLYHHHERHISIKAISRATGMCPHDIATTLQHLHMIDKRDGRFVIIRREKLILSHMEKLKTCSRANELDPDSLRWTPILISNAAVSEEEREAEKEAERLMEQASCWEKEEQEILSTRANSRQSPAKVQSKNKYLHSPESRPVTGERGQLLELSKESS

As for `CCc1cc(C(=O)NS(=O)(=O)c2c(OC)ccc3c2OCC3(C)C)ccc1Cn1cccn1` [Example C51, 4-((1H-pyrazol-1-yl)methyl)-3-ethyl-N-((6-methoxy-3,3-dimethyl-2,3-dihydrobenzofuran-7-yl)sulfonyl)benzamide], the IC50 (in general, the concentration at which inhibition is half-maximal) in assay [1] was ≤ 5 nM; in assay [2], ≤ 10 nM; in assay [3] it was ≤ 5 nM.

Turning to `COCC(C)(C)c1ccc(OC)c(S(=O)(=O)NC(=O)c2ccc(Cn3cccn3)c(OC)n2)c1` [Example C57, 5-((1H-pyrazol-1-yl)methyl)-6-methoxy-N-((2-methoxy-5-(1-methoxy-2-methylpropan-2-yl)phenyl)sulfonyl)picolinamide], the results for the IC50 in assay [1], in assay [2] and in assay [3] were ≤ 5 nM, ≤ 10 nM and ≤ 5 nM, respectively.

With `COc1ccc(N2CC3CCC(C2)O3)cc1S(=O)(=O)NC(=O)c1ccc(Cn2cccn2)c(OC)n1` [Example C62, 5-((1H-pyrazol-1-yl)methyl)-N-((5-(8-oxa-3-azabicyclo[3.2.1]octan-3-yl)-2-methoxyphenyl)sulfonyl)-6-methoxy-picolinamide], the IC50 in assay [1] is ≤ 5 nM; in assay [2], ≤ 10 nM; in assay [3], ≤ 5 nM.

As to `COc1ccc(C(C)(C)C)nc1S(=O)(=O)NC(=O)c1ccc(Cn2cccn2)c(OC(F)F)c1` [Example C30, 4-((1H-pyrazol-1-yl)methyl)-N-((6-(tert-butyl)-3-methoxypyridin-2-yl)sulfonyl)-3-(difluoromethoxy)benzamide], the IC50 in assay [1] is ≤ 5 nM; in assay [2] it was ≤ 10 nM; in assay [3], ≤ 5 nM.

Take `COCc1cc(C(=O)NS(=O)(=O)c2cc(C(C)(C)C)ccc2OC)ccc1Cn1cccn1` [Example C12, 4-((1H-pyrazol-1-yl)methyl)-N-((5-(tert-butyl)-2-methoxyphenyl)sulfonyl)-3-(methoxymethyl)benzamide]: the IC50 in assay [1] is 5 to 50 nM; in assay [2], 10 to 100 nM; in assay [3], 5 to 50 nM.

Regarding `COc1ccc2c(c1S(=O)(=O)NC(=O)c1ccc(Cn3cccn3)c(OC)n1)OCC2(C)C` [Example C43, 5-((1H-pyrazol-1-yl)methyl)-6-methoxy-N-((6-methoxy-3,3-dimethyl-2,3-dihydrobenzofuran-7-yl)sulfonyl)picolinamide], the results for the IC50 in assay [1], in assay [2] and in assay [3] were ≤ 5 nM, ≤ 10 nM and ≤ 5 nM, respectively.

For `COc1ccc(C(C)(C)C)cc1S(=O)(=O)NC(=O)c1ccc(Cn2cccn2)c(C)c1` [Example C3, 4-((1H-pyrazol-1-yl)methyl)-N-((5-(tert-butyl)-2-methoxyphenyl)sulfonyl)-3-methylbenzamide], the IC50 in assay [1] was ≤ 5 nM; in assay [2], ≤ 10 nM; in assay [3], ≤ 5 nM.

As for `COc1ccc(C(C)(C)C)cc1S(=O)(=O)NC(=O)c1ccc(Cc2ccccn2)c(C)c1` [Example C29, N-((5-(tert-butyl)-2-methoxyphenyl)sulfonyl)-3-methyl-4-(pyridin-2-ylmethyl)benzamide], the IC50 is ≤ 5 nM in assay [1], ≤ 10 nM in assay [2] and ≤ 5 nM in assay [3].

Take `COc1ccc2c(c1S(=O)(=O)NC(=O)c1ccc(Cn3cccn3)c(OC)n1)OC(C)(C)C2` [Example C42, 5-((1H-pyrazol-1-yl)methyl)-6-methoxy-N-((6-methoxy-2,2-dimethyl-2,3-dihydrobenzofuran-7-yl)sulfonyl)picolinamide]: the IC50 in assay [1] is ≤ 5 nM; in assay [2] it was ≤ 10 nM; in assay [3], ≤ 5 nM.

`COc1ccc(C(C)(C)C)cc1S(=O)(=O)NC(=O)c1ccc(Cn2cccn2)c(Br)c1` [Example C14, 4-((1H-pyrazol-1-yl)methyl)-3-bromo-N-((5-(tert-butyl)-2-methoxyphenyl)sulfonyl)benzamide]: the IC50 is ≤ 5 nM in assay [1], ≤ 10 nM in assay [2] and ≤ 5 nM in assay [3].

As to `CCOc1nc(C(=O)NS(=O)(=O)c2nc(C(C)(C)C)ccc2OC)ccc1Cn1cccn1` [Example C34, 5-((1H-pyrazol-1-yl)methyl)-N-((6-(tert-butyl)-3-methoxypyridin-2-yl)sulfonyl)-6-ethoxy-picolinamide], the IC50 is ≤ 5 nM in assay [1], ≤ 10 nM in assay [2] and ≤ 5 nM in assay [3].

In the case of `COc1ccc(C(C)(C)C)nc1S(=O)(=O)NC(=O)c1ccc(Cn2cccn2)c(OC)n1` [Example C41, 5-((1H-pyrazol-1-yl)methyl)-N-((6-(tert-butyl)-3-methoxypyridin-2-yl)sulfonyl)-6-methoxypicolinamide], the IC50 was ≤ 5 nM in assay [1], ≤ 10 nM in assay [2] and ≤ 5 nM in assay [3].

Turning to `[2H]C([2H])([2H])Oc1ccc(C(C)(C)C)nc1S(=O)(=O)NC(=O)c1ccc(Cn2cccn2)c(OC)n1` [Example C66, 5-((1H-pyrazol-1-yl)methyl)-N-((6-(tert-butyl)-3-(methoxy-d3)pyridin-2-yl)sulfonyl)-6-methoxy-picolinamide], the 50% inhibitory concentration (IC50) is ≤ 5 nM in assay [1], ≤ 10 nM in assay [2] and ≤ 5 nM in assay [3].

With `COc1ccccc1S(=O)(=O)NC(=O)c1ccc(Cn2cccn2)c(OC)n1` [Example C68, 5-((1H-pyrazol-1-yl)methyl)-6-methoxy-N-((2-methoxyphenyl)sulfonyl) picolinamide], the figures for the IC50 in assay [1], in assay [2] and in assay [3] were 5 to 50 nM, ≤ 10 nM and ≤ 5 nM, respectively.

Regarding `COc1ccc(C(C)(C)C)cc1S(=O)(=O)NC(=O)c1ccc(Cn2cccn2)c(C2CCO2)c1` (stereo not drawn) [Example C18, 4-((1H-pyrazol-1-yl)methyl)-N-((5-(tert-butyl)-2-methoxyphenyl)sulfonyl)-3-(oxetan-2-yl)benzamide], the IC50 in assay [1] is ≤ 5 nM; in assay [2] it was ≤ 10 nM; in assay [3], ≤ 5 nM.
